Square brackets hold non-standard residues; d marks the D form. Peptide text beside a SMILES is read from it. * marks the point of attachment. d2Nal = N[C@H](Cc1ccc2ccccc2c1)C(=O)O; Benzoyl(3-OMe) = COc1cccc(C(=O)*)c1; Benzoyl(4-OMe) = COc1ccc(C(=O)*)cc1; d2Thi = N[C@H](Cc1cccs1)C(=O)O
System: heat-induced edema in the anesthetized rat's paw
Test: Suppression of heat-induced edema in the anesthetized rat's paw (anti-inflammatory)
Assay type: in vivo
Details: for Anti-Inflammatory ED50: suppression of heat-induced edema in the anesthetized rat's paw; for anti-edema activity: in words

CC[C@H](C)[C@H](NC(=O)[C@@H](Cc1cccs1)NC(=O)[C@H](CC(C)C)NC(=O)[C@H](CC(C)C)NC(=O)[C@H](CCCCN)NC(=O)[C@H](C)NC(=O)c1ccc(OC)cc1)C(=O)N[C@H](CC(C)C)C(N)=O [S-118, p-anisoyl-Ala-Lys-Leu-Leu-D-Thi-Ile-D-Leu-NH2] ({Benzoyl(4-OMe)}-AKLL[d2Thi]I[dL]-NH2)
Anti-Inflammatory ED50 (i.v.): 0.035 (0.012-0.10) mg/kg

CC[C@H](C)[C@H](NC(=O)[C@@H](Cc1cccs1)NC(=O)[C@H](C)NC(=O)[C@H](CC(C)C)NC(=O)[C@H](CCCCN)NC(=O)[C@H](CCCNC(=N)N)NC(=O)c1ccc(OC)cc1)C(=O)N[C@H](CC(C)C)C(N)=O [S-165, p-anisoyl-Arg-Lys-Leu-Ala-D-Thi-Ile-D-Leu-NH2] ({Benzoyl(4-OMe)}-RKLA[d2Thi]I[dL]-NH2)
Anti-Inflammatory ED50 (i.v.): 0.046 (0.015-0.14) mg/kg

CC[C@H](C)[C@H](NC(=O)[C@H](CCCNC(=N)N)NC(=O)[C@@H](CCCNC(=N)N)NC(=O)c1ccc(OC)cc1)C(=O)N[C@H](CCCNC(=N)N)C(=O)N1CCC[C@H]1C(=O)N[C@H](CCCCN)C(=O)N[C@H](CC(C)C)C(N)=O [SQW-5, p-anisoyl-[D-Arg^6,9, D-Lys^11, D-Leu^12] dynorphin A(6-12)-NH2] ({Benzoyl(4-OMe)}-[dR]RI[dR]P[dK][dL]-NH2)
anti-edema activity: active as anti-edema agents
Anti-Inflammatory ED50 (i): 0.060 µmol/kg

CC[C@H](C)[C@H](NC(=O)[C@@H](Cc1ccc(O)cc1)NC(=O)[C@H](CC(C)C)NC(=O)[C@H](CC(C)C)NC(=O)[C@H](CCCCN)NC(=O)[C@H](CCCNC(=N)N)NC(=O)c1ccc(OC)cc1)C(=O)N[C@H](CC(C)C)C(N)=O [S-116, p-anisoyl-Arg-Lys-Leu-Leu-D-Tyr-Ile-D-Leu-NH2] ({Benzoyl(4-OMe)}-RKLL[dY]I[dL]-NH2)
Anti-Inflammatory ED50 (i.v.): 0.080 (0.03-0.20) mg/kg

CC[C@H](C)[C@H](NC(=O)[C@H](CCCNC(=N)N)NC(=O)[C@H](CCCNC(=N)N)NC(=O)c1cccc(OC)c1)C(=O)N[C@@H](CCCNC(=N)N)C(=O)N1CCC[C@H]1C(=O)N[C@@H](CCCCN)C(=O)N[C@@H](C)C(N)=O [SQW-13, m-anisoyl-Arg-Arg-Ile-Arg-Pro-Lys-Ala-amide] ({Benzoyl(3-OMe)}-RRIRPKA-NH2)
Anti-Inflammatory ED50 (i): 2.39 µmol/kg

CC[C@H](C)[C@H](NC(=O)[C@H](CCCNC(=N)N)NC(=O)[C@H](CCCNC(=N)N)NC(=O)c1cccc(OC)c1)C(=O)N[C@@H](C)C(=O)N1CCC[C@H]1C(=O)N[C@@H](CCCCN)C(=O)N[C@@H](CC(C)C)C(N)=O [SQW-10, m-anisoyl-Arg-Arg-Ile-Ala-Pro-Lys-Leu-amide] ({Benzoyl(3-OMe)}-RRIAPKL-NH2)
Anti-Inflammatory ED50 (i): 1.02 µmol/kg

CC[C@H](C)[C@H](NC(=O)[C@@H](Cc1cccs1)NC(=O)[C@H](CC(C)C)NC(=O)[C@H](CC(C)C)NC(=O)[C@H](CCCCN)NC(=O)[C@H](C)NC(=O)c1ccc(OC)cc1)C(=O)N[C@H](CC(C)C)C(N)=O [S-167, p-anisoyl-Ala-Lys-Leu-Leu-D-Thi-Ile-D-Leu-NH2] ({Benzoyl(4-OMe)}-AKLL[d2Thi]I[dL]-NH2)
Anti-Inflammatory ED50 (i.v.): >2 mg/kg

COc1ccc(C(=O)N[C@@H](CCCNC(=N)N)C(=O)N[C@@H](CCCCN)C(=O)N[C@@H](CC(C)C)C(=O)N[C@@H](CC(C)C)C(=O)N[C@H](Cc2cccs2)C(=O)N[C@@H](C)C(=O)N[C@H](CC(C)C)C(N)=O)cc1 [S-163, p-anisoyl-Arg-Lys-Leu-Leu-D-Thi-Ala-D-Leu-NH2] ({Benzoyl(4-OMe)}-RKLL[d2Thi]A[dL]-NH2)
Anti-Inflammatory ED50 (i.v.): 0.067 (0.030-0.15) mg/kg

CC[C@H](C)[C@H](NC(=O)[C@H](CCCNC(=N)N)NC(=O)[C@H](CCCNC(=N)N)NC(=O)c1cccc(OC)c1)C(=O)N[C@@H](CCCNC(=N)N)C(=O)N[C@@H](C)C(=O)N[C@@H](CCCCN)C(=O)N[C@@H](CC(C)C)C(N)=O [SQW-11, m-anisoyl-Arg-Arg-Ile-Arg-Ala-Lys-Leu-amide] ({Benzoyl(3-OMe)}-RRIRAKL-NH2)
Anti-Inflammatory ED50 (i): 1.05 µmol/kg

CC[C@H](C)[C@H](NC(=O)[C@H](CCCNC(=N)N)NC(=O)[C@H](C)NC(=O)c1cccc(OC)c1)C(=O)N[C@@H](CCCNC(=N)N)C(=O)N1CCC[C@H]1C(=O)N[C@@H](CCCCN)C(=O)N[C@@H](CC(C)C)C(N)=O [SQW-7, m-anisoyl-Ala-Arg-Ile-Arg-Pro-Lys-Leu-amide] ({Benzoyl(3-OMe)}-ARIRPKL-NH2)
Anti-Inflammatory ED50 (i): >1 µmol/kg

COc1cccc(C(=O)N[C@@H](CCCNC(=N)N)C(=O)N[C@@H](CCCNC(=N)N)C(=O)N[C@@H](C)C(=O)N[C@@H](CCCNC(=N)N)C(=O)N2CCC[C@H]2C(=O)N[C@@H](CCCCN)C(=O)N[C@@H](CC(C)C)C(N)=O)c1 [SQW-9, m-anisoyl-Arg-Arg-Ala-Arg-Pro-Lys-Leu-amide] ({Benzoyl(3-OMe)}-RRARPKL-NH2)
Anti-Inflammatory ED50 (i): 0.65 µmol/kg

CC[C@H](C)[C@H](NC(=O)[C@H](CCCNC(=N)N)NC(=O)[C@H](CCCNC(=N)N)NC(=O)c1cccc(OC)c1)C(=O)N[C@@H](CCCNC(=N)N)C(=O)N1CCC[C@H]1C(=O)N[C@@H](CCCCN)C(=O)N[C@@H](CC(C)C)C(N)=O [SQW-6, m-anisoyl-Arg-Arg-Ile-Arg-Pro-Lys-Leu-amide] ({Benzoyl(3-OMe)}-RRIRPKL-NH2)
anti-edema activity: active as anti-edema agents
Anti-Inflammatory ED50 (i): 0.51 µmol/kg

CC[C@H](C)[C@H](NC(=O)[C@@H](Cc1cccs1)NC(=O)[C@H](CC(C)C)NC(=O)[C@H](C)NC(=O)[C@H](CCCCN)NC(=O)[C@H](CCCNC(=N)N)NC(=O)c1ccc(OC)cc1)C(=O)N[C@H](CC(C)C)C(N)=O [S-160, p-anisoyl-Arg-Lys-Ala-Leu-D-Thi-Ile-D-Leu-NH2] ({Benzoyl(4-OMe)}-RKAL[d2Thi]I[dL]-NH2)
Anti-Inflammatory ED50 (i.v.): 0.18 (0.07-0.49) mg/kg

CC[C@H](C)[C@H](NC(=O)[C@@H](CCCNC(=N)N)NC(=O)[C@H](CCCNC(=N)N)NC(=O)c1ccc(OC)cc1)C(=O)N[C@H](CCCNC(=N)N)C(=O)N1CCC[C@H]1C(=O)N[C@H](CCCCN)C(=O)N[C@H](CC(C)C)C(N)=O [SQW-3, p-anisoyl-Arg-D-Arg-Ile-D-Arg-Pro-D-Lys-D-Leu-amide] ({Benzoyl(4-OMe)}-R[dR]I[dR]P[dK][dL]-NH2)
Anti-Inflammatory ED50 (i): 0.095 µmol/kg

CC[C@H](C)[C@H](NC(=O)[C@@H](Cc1ccc2ccccc2c1)NC(=O)[C@H](CC(C)C)NC(=O)[C@H](CC(C)C)NC(=O)[C@H](CCCCN)NC(=O)[C@H](CCCNC(=N)N)NC(=O)c1ccc(OC)cc1)C(=O)N[C@H](CC(C)C)C(N)=O [S-114, p-anisoyl-Arg-Lys-Leu-Leu-D-Nal-Ile-D-Leu-NH2] ({Benzoyl(4-OMe)}-RKLL[d2Nal]I[dL]-NH2)
Anti-Inflammatory ED50 (i.v.): 0.38 (0.16-0.91) mg/kg

CC[C@H](C)[C@H](NC(=O)[C@@H](Cc1cccs1)NC(=O)[C@H](CC(C)C)NC(=O)[C@H](CC(C)C)NC(=O)[C@H](C)NC(=O)[C@H](CCCNC(=N)N)NC(=O)c1ccc(OC)cc1)C(=O)N[C@H](CC(C)C)C(N)=O [S-166, p-anisoyl-Arg-Ala-Leu-Leu-D-Thi-Ile-D-Leu-NH2] ({Benzoyl(4-OMe)}-RALL[d2Thi]I[dL]-NH2)
Anti-Inflammatory ED50 (i.v.): >2 mg/kg

CC[C@H](C)[C@H](NC(=O)[C@H](CCCNC(=N)N)NC(=O)[C@H](CCCNC(=N)N)NC(=O)c1cccc(OC)c1)C(=O)N[C@@H](CCCNC(=N)N)C(=O)N1CCC[C@H]1C(=O)N[C@@H](C)C(=O)N[C@@H](CC(C)C)C(N)=O [SQW-12, m-anisoyl-Arg-Arg-Ile-Arg-Pro-Ala-Leu-amide] ({Benzoyl(3-OMe)}-RRIRPAL-NH2)
Anti-Inflammatory ED50 (i): 0.98 µmol/kg

CC[C@H](C)[C@H](NC(=O)[C@@H](Cc1cccs1)NC(=O)[C@H](CC(C)C)NC(=O)[C@H](CC(C)C)NC(=O)[C@H](CCCCN)NC(=O)[C@H](CCCNC(=N)N)NC(=O)c1ccc(OC)cc1)C(=O)N[C@H](CC(C)C)C(N)=O [mystixin-7, p-anisoyl-Arg-Lys-Leu-Leu-D-Thi-Ile-D-Leu-NH2] ({Benzoyl(4-OMe)}-RKLL[d2Thi]I[dL]-NH2)
Anti-Inflammatory ED50 (i.v.): 0.02 (0.014-0.059) mg/kg

CC[C@H](C)[C@H](NC(=O)[C@@H](CCCNC(=N)N)NC(=O)[C@@H](CCCNC(=N)N)NC(=O)c1ccc(OC)cc1)C(=O)N[C@H](CCCNC(=N)N)C(=O)N1CCC[C@H]1C(=O)N[C@H](CCCCN)C(=O)N[C@H](CC(C)C)C(N)=O [SQW-4, p-anisoyl-D-Arg-D-Arg-Ile-D-Arg-Pro-D-Lys-D-Leu-amide] ({Benzoyl(4-OMe)}-[dR][dR]I[dR]P[dK][dL]-NH2)
anti-edema activity: active as anti-edema agents
Anti-Inflammatory ED50 (i): 0.200 µmol/kg

CC[C@H](C)[C@H](NC(=O)[C@@H](Cc1cccs1)NC(=O)[C@H](CC(C)C)NC(=O)[C@H](CC(C)C)NC(=O)[C@H](CCCCN)NC(=O)[C@H](CCCNC(=N)N)NC(=O)c1ccc(OC)cc1)C(=O)N[C@H](C)C(N)=O [S-162, p-anisoyl-Arg-Lys-Leu-Leu-D-Thi-Ile-D-Ala-NH2] ({Benzoyl(4-OMe)}-RKLL[d2Thi]I[dA]-NH2)
Anti-Inflammatory ED50 (i.v.): 0.24 (0.11-0.50) mg/kg

CC[C@H](C)[C@H](NC(=O)[C@@H](C)NC(=O)[C@H](CC(C)C)NC(=O)[C@H](CC(C)C)NC(=O)[C@H](CCCCN)NC(=O)[C@H](CCCNC(=N)N)NC(=O)c1ccc(OC)cc1)C(=O)N[C@H](CC(C)C)C(N)=O [S-164, p-anisoyl-Arg-Lys-Leu-Leu-D-Ala-Ile-D-Leu-NH2] ({Benzoyl(4-OMe)}-RKLL[dA]I[dL]-NH2)
Anti-Inflammatory ED50 (i.v.): 0.42 (0.18-0.96) mg/kg

CC[C@H](C)[C@H](NC(=O)[C@H](C)NC(=O)[C@H](CCCNC(=N)N)NC(=O)c1cccc(OC)c1)C(=O)N[C@@H](CCCNC(=N)N)C(=O)N1CCC[C@H]1C(=O)N[C@@H](CCCCN)C(=O)N[C@@H](CC(C)C)C(N)=O [SQW-8, m-anisoyl-Arg-Ala-Ile-Arg-Pro-Lys-Leu-amide] ({Benzoyl(3-OMe)}-RAIRPKL-NH2)
Anti-Inflammatory ED50 (i): >1 µmol/kg

CC[C@H](C)[C@H](NC(=O)[C@@H](Cc1c[nH]c2ccccc12)NC(=O)[C@H](CC(C)C)NC(=O)[C@H](CC(C)C)NC(=O)[C@H](CCCCN)NC(=O)[C@H](CCCNC(=N)N)NC(=O)c1ccc(OC)cc1)C(=O)N[C@H](CC(C)C)C(N)=O [S-117, p-anisoyl-Arg-Lys-Leu-Leu-D-Trp-Ile-D-Leu-NH2] ({Benzoyl(4-OMe)}-RKLL[dW]I[dL]-NH2)
Anti-Inflammatory ED50 (i.v.): 0.16 (0.050-0.40) mg/kg
